In general, efflux ratio refers to a quotient of directional permeabilities that is used to spot active efflux. In general, Papp A→B refers to how fast a substance crosses the layer from the apical side. A higher Papp A→B goes with fast passage. By Papp B→A is commonly meant the apparent permeability from the basolateral to the apical side of a cell layer.

From US20260041670A1, “DRUGS FOR PREVENTING AND/OR TREATING ALZHEIMER'S DISEASE” (SHENZHEN UNIVERSITY OF ADVANCED TECHNOLOGY, priority 2023, published 2026) come the findings set out here.

One series deals with 3×Tg mice. The experiment in a line: Novel object recognition (NOR) test after 3 months treatment. To be noted: gavage 3 months, #2 3 mg/kg, #2-NP 3 and 10 mg/kg. The format is in vivo. As for the experimental part:
FIG. 9a illustrates representative movement trajectories in a novel object recognition (NOR) test for 3×Tg mice from a Vehicle group, a #2 3 mg/kg group, a #2-NP 3 mg/kg group, and a #2-NP 10 mg/kg group.
FIG. 9b illustrates statistical analysis of recognition indexes of different groups (n=6, one-way ANOVA).
To investigate whether long-term chronic treatment with #2-NP alleviates cognitive deficits in 3×Tg AD model mice, mice were administered via gavage with #2 at 3 mg/kg, #2-NP at 3 mg/kg, and #2-NP at 10 mg/kg. […] The recognition index was increased by #2-NP in a dose-dependent manner (FIGS. 9a and b). […] Additionally, quantitative analysis of Aβ PET signals was performed using the specific ligand [18F] […] Collectively, #2-NP decreases cerebral Aβ deposition, reduces brain atrophy, and ameliorates cognitive deficits in 3×Tg mice.

A short description of the next series: Permeability Caco-2. The format is in vitro ADME. Conditions: human, Caco-2. Background: Passage across Caco-2 layers is used to estimate intestinal permeability.
Series [1] can be described thus: Stability in microsomes (human). It counts as in vitro ADME. To be noted: liver microsomes.

With `CNCc1ccc(-c2cc(=O)c3ccc4nc(C(F)(F)F)[nH]c4c3o2)cc1` [#2], the “cognitive function in NOR test (recognition index)” value in the series on 3×Tg mice is reported as “failed to improve”. The efflux ratio in “Permeability Caco-2” was determined as 193. Moreover, the Papp A→B in the series “Permeability Caco-2” (a-b) was determined as 0.0175 ×10⁻⁶ cm/s. Moreover, in the series “Permeability Caco-2” (b-a), the Papp B→A was determined as 13.9 ×10⁻⁶ cm/s. Moreover, in series [1] (read-out: Stability-Microsomes CL), the microsomal CLint was 2.32 µL/min/mg. For the same compound, the half-life in series [1] (read-out: Stability-Microsomes T1/2) is 9.97 h.
